Here are results for 56 compounds from patent US8278455B2, “5- or 6-substituted benzimidazole derivatives as inhibitors of respiratory syncytial virus replication” (Janssen Pharmaceutica N.V., priority 2003, dated 2012).

The test deals with Respiratory Syncytial Virus. Put plainly: In vitro screening for activity against Respiratory Syncytial Virus (MTT tetrazolium colorimetric assay, HeLa cells). The class given is cell-based. Conditions: protection against RSV cytopathology in HeLa cells, 7 days after infection; pEC50 = −log of EC50 in molar units. The source says:
The percent protection against cytopathology caused by viruses (antiviral activity or EC50) achieved by tested compounds and their cytotoxicity (CC50) are both calculated from dose-response curves. The selectivity of the antiviral effect is represented by the selectivity index (SI), calculated by dividing the CC50 (cytotoxic dose for 50% of the cells) by the EC50 (antiviral activity for 50% of the cells). The tables in the above experimental part list the category to which each of the prepared compounds belong. Compounds belonging to activity category “A” have an pEC50 (−log of EC50 when expressed in molar units) equal to or more than 7. Compounds belonging to activity category “B” have a pEC50 value between 6 and 7.
Automated tetrazolium-based […] assays were used for determination of EC50 and CC50 of test compounds. Flat-bottom, 96-well plastic microtiter trays were filled with 180 μl of Eagle's Basal Medium, supplemented with 5% FCS (0% for FLU) and 20 mM Hepes buffer. Subsequently, stock solutions (7.8× final test concentration) of compounds were added in 45 μl volumes to a series of triplicate wells so as to allow simultaneous evaluation of their effects on virus- and mock-infected cells. Five five-fold dilutions were made directly in the microtiter trays using a robot system. Untreated virus controls, and HeLa cell controls were included in each test. Approximately 100 TCID50 of Respiratory Syncytial Virus was added to two of the three rows in a volume of 50 μl. The same volume of medium was added to the third row to measure the cytotoxicity of the compounds at the same concentrations as those used to measure the antiviral activity. After two hours of incubation, a suspension (4×10^5 cells/ml) of HeLa cells was added to all wells in a volume of 50 μl. The cultures were incubated at 37° C. in a 5% CO2 atmosphere. Seven days after infection the cytotoxicity and the antiviral activity was examined spectrophotometrically. To each well of the microtiter tray, 25 μl of a solution of MTT (3-(4,5-dimethylthiazol-2-yl)-2,5-diphenyltetrazolium bromide) was added. The trays were further incubated at 37° C. for 2 hours, after which the medium was removed from each cup. Solubilization of the formazan crystals was achieved by adding 100 μl 2-propanol. Complete dissolution of the formazan crystals were obtained after the trays have been placed on a plate shaker for 10 min. Finally, the absorbances were read in an eight-channel computer-controlled photometer (Multiskan MCC, Flow Laboratories) at two wavelengths (540 and 690 nm). The absorbance measured at 690 nm was automatically subtracted from the absorbance at 540 nm, so as to eliminate the effects of non-specific absorption.
A general note: Tetrazolium assays rely on reduction of a dye to a coloured formazan, in cell work by metabolically active cells.
`Cc1cccc(NCc2ccc3nc(NC4CCN(CCCO)CC4)n(Cc4nc(C)ccc4O)c3c2)c1` [Compound 156] registered an Activity of 8.4. The same measure for `CC(=O)Nc1ccc(NCc2ccc3nc(NC4CCN(C)CC4)n(Cc4nc(C)ccc4O)c3c2)cc1` [Compound 53]: 7.4; for `CCc1cccc(NCc2ccc3nc(NC4CCN(C)CC4)n(Cc4nc(C)ccc4O)c3c2)c1` [Compound 15]: 8.

Compound `Cc1ccc(O)c(Cn2c(NC3CCN(C)CC3)nc3ccc(CNc4ccc(C)c(F)c4)cc32)n1` [Compound 60] showed an Activity of 7.3. With `Cc1cc(C)cc(NCc2ccc3c(c2)nc(NCCc2ccccc2)n3Cc2nc(C)ccc2O)c1` [Compound 186] the figure was <4. In the case of `Cc1ccc(O)c(Cn2c(NC3CCN(C)CC3)nc3ccc(CNc4cccc(C)c4C)cc32)n1` [Compound 20], the Activity is listed as 7.9. In turn, `Cc1ccc(O)c(Cn2c(NC3CCN(CCO)CC3)nc3cc(CCc4ccccc4)ccc32)n1` [Compound 168] came in with an Activity of 6.6. The same measure for `Cc1ccc(O)c(Cn2c(NC3CCN(C)CC3)nc3ccc(C(=O)NCc4ccco4)cc32)n1` [Compound 119]: 4.8; for `Cc1ccc(O)c(Cn2c(NCCCN3CCCCC3)nc3ccc(CO)cc32)n1` [Compound 177]: 7.1; for `Cc1ccc(O)c(Cn2c(NC3CCN(C)CC3)nc3ccc(CN(CCO)c4ccccc4)cc32)n1` [Compound 4]: 8.5.

`Cc1cc(C)cc(NCc2ccc3nc(NC4CCN(CCO)CC4)n(Cc4nc(C)ccc4O)c3c2)c1` [Compound 149] displayed an Activity of 8.8. With `Cc1ccc(O)c(Cn2c(NC3CCN(C)CC3)nc3cc(NC(=O)Cc4ccccn4)ccc32)n1` [Compound 113] the figure was 5.5; with `CCN(CCO)Cc1ccc2nc(NC3CCN(C)CC3)n(Cc3nc(C)ccc3O)c2c1` [Compound 111], 5.6; with `COc1ccc(NCc2ccc3nc(NC4CCN(C)CC4)n(Cc4nc(C)ccc4O)c3c2)cc1OC` [Compound 61], 7.3.

Consider `Cc1ccc(O)c(Cn2c(NC3CCN(C)CC3)nc3ccc(CNc4ccc(Cl)cc4Cl)cc32)n1` [Compound 70], for which the Activity was 7.2.

The compound `Cc1ccc(O)c(Cn2c(NC3CCN(C)CC3)nc3ccc(NC(=O)Cc4ccccn4)cc32)n1` [Compound 108] returned an Activity of 6.

With `CCCCN(CCO)Cc1ccc2nc(NC3CCN(C)CC3)n(Cc3nc(C)ccc3O)c2c1` [Compound 109], the Activity stood at 6. The same measure for `Cc1ccc(O)c(Cn2c(NC3CCN(C)CC3)nc3ccc(CNc4ccc(C(F)(F)F)cc4)cc32)n1` [Compound 71]: 7.2; for `Cc1ccc(O)c(Cn2c(NCCc3ccccc3)nc3cc(CO)ccc32)n1` [Compound 185]: <4. `Cc1ccc(O)c(Cn2c(NC3CCN(C)CC3)nc3cc(/C=C/c4ccccc4)ccc32)n1` [Compound 100]: the Activity turned out to be 6.4. The same measure for `Cc1ccc(O)c(Cn2c(NC3CCN(C)CC3)nc3ccc(CNc4ccc(S(N)(=O)=O)cc4)cc32)n1` [Compound 10]: 8.3; for `Cc1ccc(/C=C/c2ccc3nc(NC4CCN(C)CC4)n(Cc4nc(C)ccc4O)c3c2)cc1` [Compound 128]: <4; for `Cc1ccc(O)c(Cn2c(NC3CCN(C)CC3)nc3ccc(/C=C/c4ccc(Cl)cc4)cc32)n1` [Compound 126]: <4. The same measure for `Cc1ccc(O)c(Cn2c(NC3CCN(C)CC3)nc3ccc(CNc4cccc(C(N)=O)c4)cc32)n1` [Compound 58]: 7.3.

Consider `Cc1cc(C)cc(N(CCO)Cc2ccc3nc(NC4CCN(C)CC4)n(Cc4nc(C)ccc4O)c3c2)c1` [Compound 1], for which the Activity worked out at 9.4. With `Cc1ccc(O)c(Cn2c(NC3CCN(C)CC3)nc3cc(C(=O)NCCc4ccccc4)ccc32)n1` [Compound 120] the figure was 4.6; with `Cc1ccc(O)c(Cn2c(NC3CCN(C)CC3)nc3ccc(CNc4ccccc4F)cc32)n1` [Compound 23], 7.9. `Cc1ccc(O)c(Cn2c(NC3CCN(C)CC3)nc3ccc(CCc4ccccc4)cc32)n1` [Compound 29] had an Activity of 7.8.

Regarding `Cc1ccc(O)c(Cn2c(NC3CCN(C)CC3)nc3cc(/C=C/c4ccc(Cl)cc4)ccc32)n1` [Compound 127], the Activity was <4. With `Cc1ccc(O)c(Cn2c(NC3CCN(C)CC3)nc3ccc(C(=O)Nc4ccccc4)cc32)n1` [Compound 112] the figure was 5.5; with `Cc1cc(C)cc(N(CCN(C)C)Cc2ccc3nc(NC4CCN(C)CC4)n(Cc4nc(C)ccc4O)c3c2)c1` [Compound 5], 8.5.

For the compound `Cc1ccc(O)c(Cn2c(NC3CCN(C)CC3)nc3ccc(CNc4ccc(Br)c5ccccc45)cc32)n1` [Compound 94], the Activity was determined as 6.6. With `Cc1ccc(CCc2ccc3nc(NC4CCN(C)CC4)n(Cc4nc(C)ccc4O)c3c2)cc1` [Compound 84] the figure was 6.8. The same measure for `Cc1cc(C)c(NCc2ccc3nc(NC4CCN(C)CC4)n(Cc4nc(C)ccc4O)c3c2)c(C)c1` [Compound 96]: 6.6. The same measure for `Cc1cccc(NCc2ccc3nc(NC4CCN(Cc5ccccc5)CC4)n(Cc4nc(C)ccc4O)c3c2)c1` [Compound 167]: 6.8. `Cc1cc(C)cc(NCc2ccc3c(c2)nc(NCCCN2CCCCC2)n3Cc2nc(C)ccc2O)c1` [Compound 176]: the Activity stood at 7.2. The same measure for `Cc1ccc(O)c(Cn2c(NC3CCN(C)CC3)nc3ccc(CNc4ccccc4C(N)=O)cc32)n1` [Compound 14]: 8.1; for `Cc1ccc(O)c(Cn2c(NC3CCN(C)CC3)nc3ccc(CNc4cccc(Oc5ccccc5)c4)cc32)n1` [Compound 66]: 7.2; for `CCOC(=O)c1ccc2c(c1)nc(NC1CCNCC1)n2Cc1nc(C)ccc1O` [Compound 139]: 5.1. The compound `Cc1ccc(O)c(Cn2c(NC3CCN(C)CC3)nc3ccc(CNc4ccc(F)cc4)cc32)n1` [Compound 26] showed an Activity of 7.9.

As to `Cc1ccc(O)c(Cn2c(NC3CCN(C)CC3)nc3ccc(CNc4cc(Cl)c(Cl)cc4Cl)cc32)n1` [Compound 77], the Activity was determined as 7. The same measure for `Cc1ccc(O)c(Cn2c(NC3CCN(C)CC3)nc3ccc(CNc4ccc(C#N)cc4)cc32)n1` [Compound 12]: 8.2. As to `Cc1ccc(O)c(Cn2c(NC3CCN(C)CC3)nc3ccc(CNc4ccc(C)c(C)c4)cc32)n1` [Compound 41], the Activity amounted to 7.6.

Compound `Cc1ccc(O)c(Cn2c(NC3CCN(C)CC3)nc3cc(C(=O)NCc4ccco4)ccc32)n1` [Compound 118] registered an Activity of 4.9. The same measure for `Cc1ccc(O)c(Cn2c(NC3CCN(C)CC3)nc3ccc(CNc4ccc(Br)cc4C)cc32)n1` [Compound 63]: 7.3; for `Cc1ccc(O)c(Cn2c(NC3CCN(CCN)CC3)nc3cc(CCc4ccccc4)ccc32)n1.Cl` [Compound 157]: 7.9; for `CCOC(=O)c1ccccc1NCc1ccc2nc(NC3CCN(C)CC3)n(Cc3nc(C)ccc3O)c2c1` [Compound 72]: 7.1.

Compound `Cc1ccc(O)c(Cn2c(NC3CCN(C)CC3)nc3ccc(CNc4ccc(Cl)cc4Br)cc32)n1` [Compound 83] registered an Activity of 6.9.

On to `Cc1ccc(O)c(Cn2c(NC3CCN(C)CC3)nc3cc(NC(=O)c4cccnc4)ccc32)n1` [Compound 55], for which the Activity came to 7.3.

In the case of `Cc1ccc(O)c(Cn2c(NC3CCN(C)CC3)nc3ccc(CNc4cccc(Cl)c4C)cc32)n1` [Compound 40], the Activity turned out to be 7.6.

With `Cc1ccc(O)c(Cn2c(NCCCN3CCN(C)CC3)nc3ccc(CO)cc32)n1` [Compound 178], the Activity came to 6.5.

`Cc1ccc(O)c(Cn2c(NC3CCN(C)CC3)nc3ccc(CNc4cc(C)c(C)cc4S)cc32)n1` [Compound 91] yielded an Activity of 6.7.

Compound `CCN(Cc1ccc2nc(NC3CCN(C)CC3)n(Cc3nc(C)ccc3O)c2c1)c1ccccc1` [Compound 62] came in with an Activity of 7.3. `Cc1ccc(O)c(Cn2c(NCCCN3CCN(C)CC3)nc3cc(CO)ccc32)n1` [Compound 183] had an Activity of 5. Compound `Cc1ccc(O)c(Cn2c(NC3CCN(C)CC3)nc3ccc(CN(C)c4ccccc4)cc32)n1` [Compound 51] had an Activity of 7.4. The same measure for `Cc1ccc(O)c(Cn2c(NC3CCN(C)CC3)nc3cc(NC(=O)c4ccccc4)ccc32)n1` [Compound 90]: 6.7.
